# From patent US9765035B2 (priority 2013, dated 2017)
# Where two headings read alike, the source gives them in different places.
# Target: human PRMT8 (Homo sapiens, UniProt Q9NR22)
# Assay: biochemical
# From the text: General Materials. S-adenosylmethionine (SAM), S-adenosylhomocysteine (SAH), bicine, Tween20, dimethylsulfoxide (DMSO), bovine skin gelatin (BSG), isopropyl-β-D-thiogalactopyranoside (IPTG), and Tris(2-carboxyethyl)phosphine hydrochloride solution (TCEP) were purchased from Sigma-Aldrich at the highest level of purity possible. ^3H-SAM was purchase from American Radiolabeled Chemicals with a specific activity of 80 Ci/mmol. 384-well streptavidin Flashplates were purchased from PerkinElmer.
# Substrates. Peptide representative of human histone H4 residues 31-45 was synthesized with an N-terminal linker-affinity tag motif and a C-terminal amide cap by 21st Century Biochemicals. The peptide was purified by high-performance liquid chromatography (HPLC) to greater than 95% purity and confirmed by liquid chromatography mass spectrometry (LC-MS). The sequence was Biot-Ahx-[…]-amide (SEQ ID NO.:8).
# The resulting construct encodes an N-terminal GST tag and a thrombin cleavage sequence
# Protein Expression. E. coli (BL21(DE3) Gold, Stratagene) made competent by the CaCl2 method were transformed with the PRMT8 construct and ampicillin selection. Protein over-expression was accomplished by growing the PRMT8 expressing E. coli clone and inducing expression with 0.3 mM IPTG at 16° C. The culture was grown for 12 hours, harvested by centrifugation, and stored at −80° C. for purification.
# Protein Purification. […] GST-tagged PRMT8 was eluted with 50 mM Tris, 2 mM glutathione, pH 7.8. Pooled fractions were cleaved by thrombin (10 U) and dialysed in buffer A. GST was removed by reloading the cleaved protein sample onto glutathione sepharose column and PRMT8 was collected in the flow-through fractions. PRMT8 was purified further by ceramic hydroxyapatite chromatography. The column was washed with 50 mM phosphate buffer, 100 mM NaCl, 5% glycerol, 5 mM β-mercaptoethanol, pH 7.8 and PRMT8 was eluted by 100 mM phosphate in the same buffer. Protein was concentrated and buffer was exchanged to 50 mM Tris, 300 mM NaCl, 10% glycerol, 5 mM β-mercaptoethanol, pH 7.8 by ultrafiltration. The purity of recovered protein was 89%.
# General Procedure for PRMT8 Enzyme Assays on Peptide Substrates. The assays were all performed in a buffer consisting of 20 mM Bicine (pH=7.6), 1 mM TCEP, 0.005% BSG, and 0.002% Tween 20, prepared on the day of use. Compounds in 100% DMSO (1 ul) were spotted into a polypropylene 384-well V-bottom plates (Greiner) using a Platemate Plus outfitted with a 384-channel head (Thermo Scientific). DMSO (1 ul) was added to Columns 11, 12, 23, 24, rows A-H for the maximum signal control and 1 ul of SAH, a known product and inhibitor of PRMT8, was added to columns 11, 12, 23, 24, rows I-P for the minimum signal control. A cocktail (40 ul) containing the PRMT8 enzyme was added by Multidrop Combi (Thermo-Fisher). The compounds were allowed to incubate with PRMT8 for 30 min at room temperature, then a cocktail (10 ul) containing ^3H-SAM and peptide was added to initiate the reaction (final volume=51 ul). The final concentrations of the components were as follows: PRMT8 was 1.5 nM, ^3H-SAM was 50 nM, non-radiolabeled SAM was 550 nM, peptide was 150 nM, SAH in the minimum signal control wells was 1 mM, and the DMSO concentration was 2%. The assays were stopped by the addition of non-radiolabeled SAM (10 ul) to a final concentration of 400 uM, which dilutes the ^3H-SAM to a level where its incorporation into the peptide substrate is no longer detectable. 50 ul of the reaction in the 384-well polypropylene plate was then transferred to a 384-well Flashplate and the biotinylated peptides were allowed to bind to the streptavidin surface for at least 1 hour before being washed once with 0.1% Tween20 in a Biotek EL×405 plate washer. […]
# [1] = biochemical evaluation, peptide substrate, read-out: PRMT8 IC50
# [2] = single experiment or average of multiple experiments, read-out: PRMT8 biochemical evaluation (numerical)
# human PRMT8, sequence (Q9NR22 whole entry): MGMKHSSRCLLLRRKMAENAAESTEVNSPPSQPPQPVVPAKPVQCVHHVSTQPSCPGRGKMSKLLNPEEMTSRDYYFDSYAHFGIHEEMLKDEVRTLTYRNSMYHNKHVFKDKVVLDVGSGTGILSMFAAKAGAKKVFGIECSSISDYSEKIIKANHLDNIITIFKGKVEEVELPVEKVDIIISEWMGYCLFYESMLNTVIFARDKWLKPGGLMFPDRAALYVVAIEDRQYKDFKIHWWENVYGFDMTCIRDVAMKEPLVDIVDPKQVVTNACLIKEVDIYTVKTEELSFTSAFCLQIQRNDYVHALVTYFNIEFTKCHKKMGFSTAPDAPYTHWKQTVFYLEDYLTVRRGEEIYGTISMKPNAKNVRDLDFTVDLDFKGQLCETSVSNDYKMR
SMILES,IC50 [1] [nM],IC50 [2] [nM]
"CNCCN(C)Cc1n[nH]c2cccc(OCCCC(O)CO)c12 (centres unmarked) [Compound 41, 5-((3-((methyl(2-(methylamino)ethyl)amino)methyl)-1H-indazol-4-yl)oxy)pentane-1,2-diol]",1010 to 3000,
CNCCN(C)Cc1n[nH]c2ccc(OCc3ccn(C)n3)cc12 [Compound 20],< 100,
CNCCN(C)Cc1n[nH]c2ccc(Oc3cccc(OC)c3)cc12 [Compound 22],,80.2
CNCCN(C)Cc1n[nH]c2ccc(C3=CCOCC3)cc12 [Compound 45],< 100,133
"CNCCN(C)Cc1n[nH]c2ccc(C3CCOCC3)cc12 [Compound 44, N^1,N^2-dimethyl-N^1-((5-(tetrahydro-2H-pyran-4-yl)-1H-indazol-3-yl)methyl)ethane-1,2-diamine]",< 100,236
CNCCN(C)Cc1n[nH]c2ccc(OCc3ccc(C(C)=O)cc3)cc12 [Compound 23],,42.8
"CNCCN(C)Cc1n[nH]c2ccc(C(C)C)cc12 [Compound 42, N^1-((5-isopropyl-1H-indazol-3-yl)methyl)-N^1,N^2-dimethylethane-1,2-diamine]",101 to 1000,2850
CNCCN(C)Cc1n[nH]c2cccc(OCCC(C)C)c12 [Compound 31],101 to 1000,
CNCCN(C)Cc1n[nH]c2ccc(OCC(C)c3ccccc3)cc12 (centres unmarked) [Compound 19],< 100,
"CC(C)COc1ccc2[nH]nc(CN(C)CCN)c2c1 [Compound 2, N1-((5-iso-butoxy-1H-indazol-3-yl)methyl)-N1-methylethane-1,2-diamine]",101 to 1000,458
CN(CCN)Cc1n[nH]c2ccc(OCc3ccccc3)cc12 [Compound 1B],101 to 1000,267
"CNCCN(C)Cc1n[nH]c2ccc(N3CCCCC3)cc12 [Compound 46, N^1,N^2-dimethyl-N^1-((5-(piperidin-1-yl)-1H-indazol-3-yl)methyl)ethane-1,2-diamine]",< 100,98.8
CNCCN(C)Cc1n[nH]c2ccc(OCC3CCOCC3)cc12 [Compound 50],,38.7
CNCCN(C)Cc1n[nH]c2cccc(OCc3ccccc3)c12 [Compound 21],< 100,67.5
CNCCN(C)Cc1n[nH]c2ccc(Oc3ccccc3C(F)(F)F)cc12 [Compound 49],,45.4
"CNCCN(C)Cc1n[nH]c2ccc(C3CCCCC3)cc12 [Compound 47, N^1-((5-cyclohexyl-1H-indazol-3-yl)methyl)-N^1,N^2-dimethylethane-1,2-diamine]",≤ 100,91.8
"CNCCN(C)Cc1n[nH]c2ccc(N3CCC4(CCCCC4)CC3)cc12 [Compound 43, N^1-((5-(3-azaspiro[5.5]undecan-3-yl)-1H-indazol-3-yl)methyl)-N^1,N^2-dimethylethane-1,2-diamine]",101 to 1000,2000
CNCCN(C)Cc1n[nH]c2ccc(C3=CCCCC3)cc12 [Compound 48],≤ 100,83.4
CNCCN(C)Cc1n[nH]c2ccc(OC)cc12 [Compound 35],,1860
CNCCN(C)Cc1n[nH]c2cccc(OCCC(O)CO)c12 (centres unmarked) [Compound 40],1010 to 3000,
CNCCN(C)Cc1n[nH]c2ccc(OCc3ccn(CC(C)C)n3)cc12 [Compound 33],1010 to 3000,273
